We go through 63 compounds from a melting point compilation (Tetko et al.; mined from patent text by program, amines drawn as free bases though some values may be those of a salt).

Structures are written as SMILES.

In the case of `Cc1c(C#N)c(C(F)(F)F)nn1-c1c(Cl)cc(C(F)(F)F)cc1Cl`, the melting point fell in the range of 90 to 92 °C. Regarding `COc1ccc(C2(O)CCN(C(=O)OCc3ccccc3)CC2)cc1`, the melting point worked out at 98 °C. `CS(=O)(=O)Nc1cc2occc(=O)c2cc1Oc1ccccc1N` yielded a melting point of 238 to 240 °C. Compound `CCCc1nn(C)c(C(N)=O)c1NC(=O)c1sccc1OCC` returned a melting point of 103 to 104 °C. On to `CC(O)(CC(=O)O)c1ccc(-c2ccc(F)cc2F)cc1` (stereo not drawn), for which the melting point lay within 121 to 123 °C.

`CCCNC(=O)C1(CCCCSc2ccccc2)c2ccccc2-c2ccccc21` showed a melting point of 50 to 53 °C.

`CC(C)(C)C12OOC1(c1cc3cc(O[Si](C)(C)C(C)(C)C)ccc3o1)OCC2(C)C` (stereo not drawn): the melting point was in the range of 117 to 118 °C.

Take `O=C(O)c1nn(Cc2cccc(O)c2)c2c1CCc1cc(OCc3cncnc3)ccc1-2`: the melting point fell in the range of 251 to 256 °C. For `O=C(O)CCC(O)c1ccc(-c2ccc(Br)cc2)cc1` (stereo not drawn) the value was 127 °C.

The compound `COc1cc(-c2ccccc2)nc(-c2ccc(C)cc2)n1` returned a melting point of 99 to 100 °C.

The compound `CCOC(=O)N1Cc2[nH]c3ccc(F)cc3c2C1` came in with a melting point of 248 to 249 °C.

For the compound `COc1cc(OC)nc(C2(C#N)OC(=O)c3c(-c4ccccc4)ccnc32)n1` (stereo not drawn), the melting point lay within 196 to 198 °C. With `OC(CCn1ccnc1)c1ccc(Br)cc1` (stereo not drawn) the figure was 104 to 110 °C; with `N#Cc1ccc(NC2CCN(Cc3cc(F)cc(F)c3)CC2)nn1`, 188 °C.

The compound `CCCCCC(CC(=O)Nc1cc(CO)ccc1C(C)(C)C)c1ccccc1C(F)(F)F` (stereo not drawn) registered a melting point of 147 to 148 °C. With `Cc1cccc2c1CC(n1ccnc1C(N)=O)C2=O` (stereo not drawn) the figure was 160 °C; with `COc1sc(-c2ccc(NS(=O)(=O)c3sc4ccc(F)cc4c3C)c(S(C)(=O)=O)c2)nc1C`, 216 to 217 °C. `O=Cc1c2ccccc2cc2c(Cl)cccc12` displayed a melting point of 129 to 131 °C.

Turning to `CN1C2CC(OC(=O)Cc3ccccc3)CC1C(O)C2O` (stereo not drawn), the melting point is 120 to 122 °C. `CCOC(=O)C(NC(=O)CCl)c1cscn1` (stereo not drawn) returned a melting point of 145 to 146 °C. Turning to `C[C@H](CN(C(=O)C1(C)C2CCC1CC2)c1ccccn1)N1CCN(c2cccc3[nH]ccc23)CC1` (stereo partly drawn), the melting point was 236 to 238 °C. As to `CCCCCCCCCCCCCCCCCCOc1cc(OCCOCCOCCOCC)cc(C(=O)O)c1`, the melting point fell in the range of 38 to 40 °C. In turn, `Nc1cccc(-c2ccc(CCN3CC4C(N)C4C3)cc2)n1` (stereo not drawn) gave a melting point of 187 to 190 °C. As for `COc1cc2c(c3c1OC1(CCCC1)C3)C(c1ccccc1)=NC(C)(C)C2`, the melting point lay in the range of 130 to 131 °C.

Take `CCCn1nc2c(N)nc3c(c2c1CC(C)(C)S(C)(=O)=O)CCCC3`: the melting point lay in the range of 209 to 211 °C. Compound `CN[C@@H]1CN(c2cc3c(cc2F)c(=O)c(C(=O)O)cn3C(C)(C)C)[C@H]1C` (relative stereo) registered a melting point of 194 to 195 °C. In turn, `Cc1nccn1N=Cc1cc(C(C)(C)C)c(O)c(C(C)(C)C)c1` showed a melting point of 206 to 207 °C.

`COc1cc2c(cc1O)CC1c3c(cc(OC)c(O)c3-2)CCN1CC1CC1` (single isomer, unassigned; (+)) came in with a melting point of 80 to 84 °C. For `CC(C)(O)C(=O)N[C@H]1CC[C@H](CCN2CCC(c3cccc4c3CCO4)CC2)CC1` the value was 163 °C; for `O=C(Nc1ccc(C(=O)N2CCc3nc(-c4ccccn4)[nH]c3-c3ccccc32)cc1)c1ccccc1-c1ccccc1`, 240 to 242 °C.

Regarding `CC(C)n1nc(-c2sc(NC(=O)NCc3ccccc3)nc2-c2ccccc2)ccc1=O`, the melting point fell in the range of 200 to 201 °C. For `OC1CCCc2ccc(-c3ccc4nc(-c5ccc(Cl)cc5)cn4c3)cc21` (stereo not drawn), the melting point was in the range of 232 to 234 °C.

With `Cc1cc(Cl)ccc1N=CN(C)SSN(C)C=Nc1ccc(Cl)cc1C`, the melting point lay within 56 to 57 °C. Turning to `Cn1c(CNCC(C)(C)O)cc2cc(NC(=O)c3ccc(OCC4CC4)cc3)ccc21`, the melting point is 188 to 189 °C. Regarding `CCCS(=O)(=O)Nc1ccc(Sc2c(O)c3c(=O)n(-c4ccccc4)c4ccccc4c3oc2=O)cc1`, the melting point is 249 to 251 °C. Consider `Cc1ccc(C=Nc2ccc(Cl)cc2Cl)c(C)c1`, for which the melting point is 102 to 106 °C.

`COc1ccc(-c2cncc3cccc([N+](=O)[O-])c23)c(O)c1OC`: the melting point was 170 to 174 °C. With `CC(C)OC(=O)C(C(=O)OC(C)C)=C1SC2C(S1)N(C(C)C)CCN2C(C)C` (stereo not drawn) the figure was 82 to 84 °C. With `COC(=O)c1n[nH]c(=O)c2ccc(Cl)cc12` the figure was 222 to 223 °C; with `C=CCOC(=O)C(C)N(C(=O)CCl)c1c(C)cccc1C` (stereo not drawn), 55 to 56 °C. Take `COc1cc(Cc2cnc(N)nc2N)cc2c1OC(C)(C)C=C2C#CCO`: the melting point was in the range of 236 to 237 °C. For `O=C(NO)c1ccc(C(=O)NOCCC23CC4CC(CC(C4)C2)C3)cc1` the value was 198 to 200 °C; for `Cc1nc(Cc2ccccc2)c2c(c1O)COC(C(C)C)OC2` (stereo not drawn), 193 to 194 °C. Compound `O=S(=O)(NS(=O)(=O)c1ccc(CCBr)cc1)c1ccccc1` showed a melting point of 148 to 150 °C. Consider `OCc1cc(F)cc(Br)c1`, for which the melting point lay in the range of 41 to 43 °C.

Turning to `CC12CCC(=O)C=C1CCC1C2CCC2(C)C(OC(=O)CCl)CCC12` (stereo not drawn), the melting point was 125 to 126 °C.

On to `CC(C)(C)OC(=O)N1CCC(c2cn(-c3ccc(F)cc3)c3ccc(C#N)cc23)CC1`, for which the melting point is 155 °C.

Compound `COc1ccc(-c2ccc(C#N)o2)cc1C(F)(F)F` showed a melting point of 61 to 64 °C.

Compound `O=C(O)c1cccc(-c2ncco2)c1` yielded a melting point of 187 to 188 °C. For `Cn1c(CO)nc2cnccc21` the value was 285 to 290 °C; for `CC(C(=O)O)c1ccc(-c2ccccc2)cc1` (stereo not drawn), 144 to 145 °C; for `COc1ccccc1[C@H](c1cccc2ccccc12)[C@@](C)(C#N)C(=O)N1CC=C(c2ccc(Cl)cc2)CC1`, 118 to 122 °C. With `CC(C)(C)OC(=O)C(=[N+]=[N-])C(=O)CCl` the figure was 40 to 41 °C; with `N#Cc1cc2ccc(O)cc2s1`, 195 to 198 °C; with `CC1(C)CCC(=Cc2ccc(Cl)cc2)C(=O)C1`, 85 to 86 °C. For `COc1ccc2cc(NC(=O)OC(C)(C)C)ccc2c1` the value was 124 to 127 °C; for `COc1ccc(-c2ccc(C(=O)Nc3ccc4cc(CN5CCCCC5)cnc4c3C)cc2F)cc1`, 148 to 149 °C; for `COc1ccc(C(=O)c2ccc(OCc3nc(-c4ccccc4)oc3C)cc2)c(OC(F)(F)C(=O)O)c1`, 166 to 167 °C. On to `O=c1[nH]c2ccc(CCN3CCN(c4cccc5cccnc45)CC3)cc2o1`, for which the melting point stood at 200 °C.

`O=C(O)c1cccnc1N1CCN(CCOCCO)CC1` had a melting point of 172 to 174 °C. As for `Nc1ccc(Nc2cccc3c2C(=O)c2ccccc2C3=O)cc1`, the melting point lay in the range of 175 to 182 °C. `CC(N1C(=O)C(=O)N(c2ccc(Cl)cc2)C1=S)C(C)(C)C` (stereo not drawn) returned a melting point of 199 to 200 °C. `CCOC(=O)Cc1cc(C)c(C(=O)c2ccccc2)n1C` displayed a melting point of 78 to 80 °C.
